Experimental data taken from patent US20260125359A1, “HETEROARYL COMPOUNDS AS MULTI-TARGET PROTEIN KINASE INHIBITORS” (FUJIAN HAIXI PHARMACEUTICALS CO., LTD., priority 2023, published 2026).

System: M-NFS-60 cells
Experiment: M-NFS-60 cell in vitro assay (CCK, 48 h, M-CSF factor medium)
Type: cell-based
Conditions: M-NFS-60 cells; read-out: M-NFS-60cellassay IC50
Summary of the method: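 Mouse M-NFS-60 cells (2000/well) in RPMI-1640 with 10% serum and M-CSF (25 ng/ml) were pre-incubated 4 h, then exposed to DMSO-diluted compound gradients for 48 h at 5% CO2. Viability read by CCK, 2 h, OD 450 nm; IC50 from curve fitting.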

First: Cc1ccc(F)c(NC(=O)c2cccc3c2CC[C@@H]3Oc2cnc3cn(C)nc3c2)c1 [Compound 76ax]
Second: COc1c(Cl)cccc1NC(=O)c1cccc2c1CC[C@@H]2Oc1cnc2cn(C)nc2c1 [Compound 76be]
The IC50 of the first is lower: less than 50 nM for the first, 50 to 200 nM for the second.

Compared with `Cn1ncc2ncc(N[C@H]3CCc4c(Nc5nc(C(C)(C)C)cs5)cccc43)cc21` [Compound 91b], `Cn1cc2ncc(N[C@H]3CCc4c(Nc5cc(C(C)(C)C)on5)cccc43)cc2n1` [Compound 90, (S)—N^4-(5-(tert-butyl)isoxazol-3-yl)-N^1-(2-methyl-2H-pyrazolo[4,3-b]pyridin-6-yl)-2,3-dihydro-1H-indene-1,4-diamine] is lower in IC50: 50 to 200 nM for the first, less than 50 nM for the second. The second is the more potent here.

First: Cn1cc(-c2cncc(N[C@H]3CCc4c(NCC5CCCCC5)cccc43)n2)cn1 [Compound 60b]
Second: Cn1cc(-c2cncc(N[C@H]3CCc4c(Nc5nc(C6CC6)cs5)cccc43)n2)cn1 [Compound 36b]
The IC50 of the first is higher: greater than 500 nM for the first, 50 to 200 nM for the second. The second is the more potent here.

`CN(c1cncc(-c2cnn(C)c2)c1)[C@H]1CCc2c(C(=O)Nc3nn(C)c4ccccc34)cccc21` [Compound 22g] and `CN(c1cncc(-c2cnn(C)c2)c1)[C@H]1CCc2c(C(=O)Nc3ccc(C(F)(F)F)cc3)cccc21` [Compound 20, (S)-1-(methyl (5-(1-methyl-1H-pyrazol-4-yl)pyridin-3-yl)amino)-N-(4-(trifluoromethyl)phenyl)-2,3-dihydro-1H-indene-4-carboxamide] cannot be ordered by IC50: less than 50 nM for the first, less than 50 nM for the second.

Compared with `Cn1cc(-c2cncc(N[C@H]3CCc4c(C(=O)Nc5cccc(C6CC6)c5)cccc43)n2)cn1` [Compound 27a], `Cn1cc(-c2cc(N[C@H]3CCc4c(C(=O)Nc5cccc(C6CC6)c5)cccc43)ccn2)cn1` [Compound 57, (S)—N-(3-cyclopropylphenyl)-1-((2-(1-methyl-1H-pyrazol-4-yl)pyridin-4-yl)amino)-2,3-dihydro-1H-indene-4-carboxamide] is higher in IC50: less than 50 nM for the first, greater than 500 nM for the second.

Compared with `Cn1cc(-c2cncc(N[C@H]3CCc4c(C(=O)Nc5ccccc5F)cccc43)n2)cn1` [Compound 27n], `Cn1cc(-c2cncc(N[C@H]3CCc4c(C(=O)NC(C)(C)C(F)(F)F)cccc43)n2)cn1` [Compound 27m] is higher in IC50: less than 50 nM for the first, greater than 500 nM for the second. The first is the more potent here.

`CN1CCN(c2cccc(NC(=O)c3cccc4c3CC[C@@H]4Nc3cncc(-c4cnn(C)c4)c3)c2)CC1` [Compound 14ai] and `CN1CCN(c2cccc(C(=O)Nc3cccc4c3CC[C@@H]4Nc3cncc(-c4cnn(C)c4)n3)c2)CC1` [Compound 25e] fall in the same range of IC50: 50 to 200 nM for the first, 50 to 200 nM for the second.

First: COc1cccc(C(=O)Nc2cccc3c2CCC3Oc2cc(-c3cnn(C)c3)cnc2N)c1 (stereo not shown) [Compound 1, N-(1-((2-amino-5-(1-methyl-1H-pyrazol-4-yl)pyridin-3-yl)oxy)-2,3-dihydro-1H-inden-4-yl)-3-methoxybenzamide]
Second: COc1cccc(C(=O)Nc2cccc3c2CCCC3Oc2cc(-c3cnn(C)c3)cnc2N)c1 (stereo not shown) [Compound 2a]
The IC50 of the first is lower: 50 to 200 nM for the first, greater than 500 nM for the second. The first is the more potent here.

`Clc1cncc(N[C@H]2CCc3c(Nc4noc5ccccc45)cccc32)c1` [Compound 42j] and `Clc1cncc(N[C@H]2CCc3c(Nc4nc5c(s4)CCCC5)cccc32)c1` [Compound 42f] cannot be ordered by IC50: greater than 500 nM for the first, greater than 500 nM for the second.

`Cn1cc2ncc(N[C@H]3CCc4c(Nc5cc(C6(C(F)(F)F)CCCC6)on5)cccc43)cc2n1` [Compound 91o] and `Cn1cc2ncc(N[C@H]3CCc4c(Nc5cc(C67CC(C6)C7)on5)cccc43)cc2n1` [Compound 91r] cannot be ordered by IC50: less than 50 nM for the first, less than 50 nM for the second.

`Cn1cc(-c2cncc(N[C@H]3CCc4c(Nc5nnc(C(C)(C)C)o5)cccc43)c2)cn1` [Compound 42l] and `CN(c1cncc(-c2cnn(C)c2)c1)[C@H]1CCc2c(Nc3cc(C(C)(C)C)on3)cccc21` [Compound 49, (S)—N^4-(5-(tert-butyl)isoxazol-3-yl)-N^1-methyl-N1-(5-(1-methyl-1H-pyrazol-4-yl)pyridin-3-yl)-2,3-dihydro-1H-indene-1,4-diamine] cannot be ordered by IC50: greater than 500 nM for the first, greater than 500 nM for the second.

`Cn1cc2ncc(N[C@H]3CCc4c(NC(=O)c5cccc(C6CC6)c5)cccc43)cc2n1` [Compound 81, (S)-3-cyclopropyl-N-(1-((2-methyl-2H-pyrazolo[4,3-b]pyridin-6-yl)amino)-2,3-dihydro-1H-inden-4-yl)benzamide] and `Cc1cccc(C(=O)Nc2cccc3c2CC[C@@H]3Nc2cnc3cn(C)nc3c2)c1F` [Compound 82, (S)-2-fluoro-3-methyl-N-(1-((2-methyl-2H-pyrazolo[4,3-b]pyridin-6-yl)amino)-2,3-dihydro-1H-inden-4-yl)benzamide] cannot be ordered by IC50: less than 50 nM for the first, less than 50 nM for the second.

`Cn1ncc2ncc(N[C@H]3CCc4c(Nc5cc(C(C)(C)C(F)(F)F)on5)cccc43)nc21` [Compound 87, (S)—N′-(1-methyl-1H-pyrazolo[3,4-b]pyrazin-6-yl)-N^4-(5-(1,1,1-trifluoro-2-methylpropan-2-yl)isoxazol-3-yl)-2,3-dihydro-1H-indene-1,4-diamine] and `Cn1cc2ncc(N[C@H]3CCc4c(Nc5noc(C(C)(C)C(F)(F)F)n5)cccc43)cc2n1` [Compound 93f] cannot be ordered by IC50: less than 50 nM for the first, less than 50 nM for the second.

`Cn1cc(-c2cncc(N[C@H]3CCc4c(C(=O)Nc5ccc(Cl)c(C(F)(F)F)c5)cccc43)c2)cn1` [Compound 14ad] and `COc1ccc(NC(=O)c2cccc3c2CC[C@@H]3Nc2cncc(-c3cnn(C)c3)c2)cc1` [Compound 14am] cannot be ordered by IC50: less than 50 nM for the first, less than 50 nM for the second.

Compared with `CN(C)CCOc1cccc(NC(=O)c2cccc3c2CC[C@@H]3Oc2cnc3cnn(C)c3c2)c1` [Compound 76ap], `Cn1ncc2ncc(O[C@H]3CCc4c(C(=O)Nc5cccc(C6CC6)c5F)cccc43)cc21` [Compound 76bc] is lower in IC50: 50 to 200 nM for the first, less than 50 nM for the second. The second is the more potent here.

First: Cn1cc(-c2cnc(N)c(O[C@H]3CCc4c(NC(=O)c5ccc6c(c5)OC(F)(F)O6)cccc43)c2)cn1 [Compound 3c]
Second: Cc1ncc(-c2cnn(C)c2)cc1O[C@H]1CCc2c(NC(=O)c3ccc(C(F)(F)F)cc3)cccc21 [Compound 72, (S)—N-(1-((2-methyl-5-(1-methyl-1H-pyrazol-4-yl)pyridin-3-yl)oxy)-2,3-dihydro-1H-inden-4-yl)-4-(trifluoromethyl)benzamide]
The IC50 of the first is lower: 50 to 200 nM for the first, greater than 500 nM for the second.

First: Cn1cc(-c2cncc(N[C@H]3CCc4c(C(=O)Nc5cccc(C6CC6)c5)ccnc43)c2)cn1 [Compound 55, (S)—N-(3-cyclopropylphenyl)-7-((5-(1-methyl-1H-pyrazol-4-yl)pyridin-3-yl)amino)-6,7-dihydro-5H-cyclopenta[b]pyridine-4-carboxamide]
Second: Cn1cc2cc(N[C@H]3CCc4c(C(=O)Nc5cccc(C6CC6)c5)cccc43)cnc2n1 [Compound 74c]
The IC50 of the first is higher: 200 to 500 nM for the first, 50 to 200 nM for the second. The second is the more potent here.

First: COc1ccc(F)c(NC(=O)c2cccc3c2CC[C@@H]3N(C)c2cnc3cn(C)nc3c2)c1 [Compound 80p]
Second: CN(C)Cc1cc(NC(=O)c2cccc3c2CC[C@@H]3N(C)c2cnc3cnn(C)c3c2)ccc1F [Compound 80f]
The IC50 of the first is lower: less than 50 nM for the first, 50 to 200 nM for the second.

`Cn1cc(-c2cncc(N[C@H]3CCc4c(NC(c5cccc(Cl)c5)C(F)(F)F)cccc43)n2)cn1` (stereo partly drawn) [Compound 61, (1S)—N^4-(1-(3-chlorophenyl)-2,2,2-trifluoroethyl)-N1-(6-(1-methyl-1H-pyrazol-4-yl)pyrazin-2-yl)-2,3-dihydro-1H-indene-1,4-diamine] and `Cn1cc(-c2cncc(NC3CC(=O)c4c(NC(=O)c5ccc(C(F)(F)F)cc5)cccc43)c2)cn1` (stereo not shown) [Compound 70, N-(1-((5-(1-methyl-1H-pyrazol-4-yl)pyridin-3-yl)amino)-3-oxo-2,3-dihydro-1H-inden-4-yl)-4-(trifluoromethyl)benzamide] cannot be ordered by IC50: greater than 500 nM for the first, greater than 500 nM for the second.

First: Cn1cc(-c2cnc(N)c(O[C@H]3CCc4c(Nc5cc(C(C)(C)C)on5)cccc43)c2)cn1 [Compound 67, (S)—N-(1-((2-amino-5-(1-methyl-1H-pyrazol-4-yl)pyridin-3-yl)oxy)-2,3-dihydro-1H-inden-4-yl)-5-(tert-butyl) isoxazol-3-amine]
Second: CN1CCC[C@H]1c1nc(Nc2cccc3c2CC[C@@H]3Nc2cnc3cn(C)nc3c2)no1 [Compound 93c]
The IC50 of the first is lower: less than 50 nM for the first, 50 to 200 nM for the second. The first is the more potent here.

Going from `Cn1ccc2ncc(N[C@H]3CCc4c(C(=O)Nc5cccc(C6CC6)c5)cccc43)cc21` [Compound 74e] to `Cn1cc2cc(N[C@H]3CCc4c(C(=O)Nc5cccc(C6CC6)c5)cccc43)ccc2n1` [Compound 74d], the IC50 rises from less than 50 nM to greater than 500 nM.

`CN1CCc2nc(NC(=O)c3cccc4c3CC[C@@H]4N(C)c3cnc4cn(C)nc4c3)sc2C1` [Compound 80o] gave an IC50 of less than 50 nM.
